Legend:
[1] = humans, estimated; cited from earlier work
[2] = tested on: Molt4CCR5, PBMC and CD34+ cells; test: MTX mediated negative selection of HPRT knock down cells; format: cell-based, human; settings: in vitro, 10 μM MTX; % EGFP monitored
From the text: FIG. 8. Line graphs showing MTX mediated inhibition of Dihydrofolate reductase (DHFR) induced cell death in HPRT knock down cells.
Negative selection of HPRT knock down cells by MTX is illustrated in FIG. 7, which presents a schematic illustration of MTX mediated inhibition of Dihydrofolate reductase (DHFR) induced cell death in HPRT knock down cells. […] The de novo synthesis occurs through a multi-step process and requires the contribution of four aminoacids, one PRPP, two folates and three ATP to synthesize an inosine monophosphate (IMP) molecule. HPRT catalyzes the salvage synthesis of inosine monophosphate (IMP) and guanosine monophosphate (GMP) from the purine bases hypoxanthine and guanine respectively, utilizing PRPP as a co-substrate. The HPRT defect results in the accumulation of its substrates, hypoxanthine and guanine, which are converted into uric acid by means of xanthine oxidase. Elevated APRT activity may also contribute to purine overproduction.
Molt4CCR5 (A), PBMC (B) and CD34+ (C) cells were transduced with dual shRNA vector. The transduced cells were cultured with or without 10 μM MTX. Cells were monitored for % EGFP and given fresh media containing MTX every 3 days.

[3] = tested on: hypoxanthine guanine phosphoribosyltransferase (HPRT); test: HPRT knockdown in vector transduced cells (Western blot); format: cell-based, human; settings: lentiviral vector transduced cells
Protocol: FIG. 6. HPRT knockdown in vector transduced cells. Whole cell lysates were analyzed by Western blot after transduction at the indicated time points.
(§1) The shRNA vector and control vector transduced cells were cultured with or without 6TG. […] Whole cell lysates were analyzed by Western blot after transduction at the indicated time points.

[4] = tested on: human T-cell line, CD34+ cells and primary peripheral blood mononuclear cells (PBMC); test: 6TG-mediated positive selection of lentiviral vector-transduced cells in vitro; format: cell-based; settings: cultured in the presence of 6TG
Protocol: FIG. 4. Lentiviral vector delivery of HPRT shRNA results in efficient selections of HPRT knockdown by 6TG. Selection of HPRT knockdown Molt4-CCR5, PBMC and CD34+ cell by 6TG. The shRNA vector and control vector transduced cells were cultured with or without 6TG.
The potent and non-toxic HPRT shRNA enables 6TG-mediated positive selection of lentiviral vector-transduced human T-cell line, CD34+ cells and primary peripheral blood mononuclear cells (PBMC) in vitro. A lentivirus vector was utilized to deliver sh734 and to stably knockdown HPRT in human T cell lines, primary peripheral blood mononuclear cells and CD34+ hematopoietic stem/progenitor cells.
Furthermore, the invention provides a combinatorial anti-HIV lentiviral vector expressing the HIV fusion inhibitor C46, and shRNAs for CCR5 and HPRT. […] Methotrexate (MTX) has been used to negatively select the transduced cells.
as §1

## Nc1nc2nc[nH]c2c(=S)[nH]1 [6TG, 6-thioguanine]
[1]
  Absorption after oral administration: 30%

## CN(Cc1cnc2nc(N)nc(N)c2n1)c1ccc(C(=O)N[C@@H](CCC(=O)O)C(=O)O)cc1 [MTX, methotrexate]
[2]
  negative selection of HPRT knock down cells by MTX: negatively selected

## sh734: short hairpin RNA directed to human HPRT, coding sequence SEQ ID NO: 1 (DNA AGGATATGCCCTTGACTATTTGTCCGACATAGTCAAGGGCATATCCT; expressed or natural sequence)
[3]
  HPRT knockdown: efficient HPRT knockdown
[4]
  positive selection of vector transduced cells by 6TG: positively selected

From patent publication US11377659B2, “Short hairpin RNA (shRNA734) and use of same to positively select and eliminate genetically modified cells” (THE REGENTS OF THE UNIVERSITY OF CALIFORNIA, priority 2016, dated 2022)
